In patent US8614068B2, “Process for producing hepcidin” (Hellenic Pasteur Institute, priority 2007, dated 2013):
Entries after “also recorded” stand apart in the source; their conditions may differ.

Biological target: T1, FPN1-GFP (Mus musculus, UniProt Q9JHI9)
T1 construct: expressed in transfected cells
T1 sequence (Q9JHI9 1-570): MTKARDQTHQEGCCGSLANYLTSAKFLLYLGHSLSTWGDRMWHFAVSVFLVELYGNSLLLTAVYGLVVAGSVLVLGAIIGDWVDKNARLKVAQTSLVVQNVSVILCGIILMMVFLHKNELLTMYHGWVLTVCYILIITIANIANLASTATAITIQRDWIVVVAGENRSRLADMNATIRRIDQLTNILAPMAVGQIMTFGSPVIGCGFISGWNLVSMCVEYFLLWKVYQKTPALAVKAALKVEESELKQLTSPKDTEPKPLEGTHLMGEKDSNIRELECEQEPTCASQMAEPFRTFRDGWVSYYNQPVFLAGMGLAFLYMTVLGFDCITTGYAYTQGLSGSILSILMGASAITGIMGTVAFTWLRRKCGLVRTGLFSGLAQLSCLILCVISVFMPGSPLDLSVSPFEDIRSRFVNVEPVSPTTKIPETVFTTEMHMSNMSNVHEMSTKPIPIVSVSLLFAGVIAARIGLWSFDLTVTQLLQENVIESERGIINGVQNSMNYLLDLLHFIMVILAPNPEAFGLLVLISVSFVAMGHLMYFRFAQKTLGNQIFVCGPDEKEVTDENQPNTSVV
Experiment: FPN1-GFP internalization by confocal microscopy in HEK293-Fpn cells
Format: cell-based
Settings: HEK293-Fpn cells induced with ponasterone 24 h, treated 3 h
Experimental: A, RAW 264.7 macrophages were treated with 11 μM and 10 μM of synthetic hepcidin-25 (having the sequence of SEQ ID NO. 2) and Hep-25His (having the sequence of SEQ ID NO. 6) for 4 h at 37° C. or with PBS as negative control. Cell lysates were subjected to 8% SDS PAGE and Western Blot with antibodies against TfR1, Ferroportin and actin as loading control. B, The signal density of ferroportin, TfR1 and actin protein bands from two independent experiments were quantified by densitometry and their intensity relative to actin was calculated. Data are expressed as mean of ratios of TfR1 or to actin levels ±S.D. for each experimental condition. *p<0.01. […] Hep25-His, negative peptide and PBS was incubated with Raw 264.7 macrophages, followed by cross-linking with DSS. Cell lysates were incubated with Ni2-NTA and eluates were analyzed by Western blot using anti-FPN1 Ab. […] Fluorescence was visualized with a Leica TCS confocal microscope. […]
Furthermore, the internalization of FPN1 in the presence of Hep25-His (having the sequence of SEQ ID NO. 6) was analyzed in HEK293-Fpn cells by confocal microscopy; these cells express an FPN1-GFP fusion construct on the plasma membrane (Nemeth, E., Tuttle, M. S., Powelson, J., Vaughn, M. B., Donovan, A., Ward, D. M. Ganz, T., Kaplan, J. (2004) Science 306, 2090-3).

In the case of hepcidin-25His [Hep-25His], the “internalization of FPN1-GFP” value is reported as “promoted the internalization of FPN1-GFP; also recorded: causes the internalization of FPN1-GFP”.
